{"source": "patent US8691872B2", "about": "(Teva Pharmaceutical Industries Ltd., priority 2010, dated 2014)", "key": {"[1]": {"details": "AZILECT; cited from earlier work"}, "[2]": {"protocol": "As used herein, a “glass transition temperature (Tg)” of a solid is the temperature where the solid goes from a rigid state to a flexible state. At Tg, a polymer undergoes a phase transition from a hard, glass-like state to a flexible, rubber-like state. The Tg temperature values listed herein were determined based upon half-height of the step change or “S” shape curve seen in DSC data.\nDispersions were prepared using several techniques including rotary evaporation from solution, cryogrinding dry components and lyophilization. Samples were analyzed by modulated Differential Scanning calorimetry (DSC) to determine glass transition temperatures (Tg). A slight excess of citric acid was used in most dispersions i.e. 0.7:1 mol of rasagiline: citric acid.\nIn the following experiment, rasagiline base was mixed with citric acid (1:1 mol:mol) and then methanol was added to the mixture. After stirring and complete dissolution of solids, the solution was evaporated under vacuum in rotary evaporator at bath temperature 60° C."}, "[3]": {"test": "Modulated DSC (MDSC), glass transition temperature (Tg)", "assay_type": "physicochemical", "details": "Table 1"}}, "note": "Read-outs that look alike come from different tables or passages of the source.", "data": [{"compound": "C#CCN[C@@H]1CCc2ccccc21", "note": "[Rasagiline, R(+)-N-propargyl-1-aminoindan]", "values": [{"measurement": "absolute bioavailability", "setting": "[1]", "value": "about 36%"}]}, {"compound": "C#CCN[C@@H]1CCc2ccccc21.O=C(O)CC(O)(CC(=O)O)C(=O)O", "note": "[Sample 1, mono-rasagiline citrate]", "values": [{"measurement": "Tg", "setting": "[2]; by DSC", "value": "~17", "unit": "°C"}, {"measurement": "Tg", "setting": "[2]; cyclic DSC", "value": "Tg = 18 °C"}, {"measurement": "Tg", "setting": "[3]", "value": "Tg = 16 °C"}]}]}
